Source: US9029593B2, “Method for manufacturing spilanthol and intermediate manufacturing product therefor” (Takasago International Corporation, priority 2009, dated 2015)
Entries after “also recorded” stand apart in the source; their conditions may differ.

Columns and labels:
[1] = Thermal stability evaluation of crude product at 180° C. (GC, hexadecane internal standard); format: physicochemical; conditions: crude product before distillation, stirring at 180° C. in a stream of nitrogen, after 3 hours, GC area ratio vs hexadecane
Method: The crude product of N-isobutyl-2,6,8-decatrienamide obtained in Example 2 before the distillation and the crude product obtained in Comparative Example 1 were compared as follows in terms of thermal stability at 180° C. assuming distillation at high temperature.
In a stream of nitrogen, 1 g of each of the crude products was put into a flask together with 0.1 g of hexadecane as an internal standard substance, followed by stirring at 180° C. for […]. By gas chromatography, the area ratio of N-isobutyl-2,6,8-decatrienamide was compared with the area ratio of the internal standard substance to measure the remaining percentage of N-isobutyl-2,6,8-decatrienamide.

[2] = Sensory evaluation of aqueous solutions containing 10 ppm of N-isobutyl-2,6,8-decatrienamide; format: in vivo; conditions: aqueous solution containing 10 ppm
Method: The sensory evaluation was performed using aqueous solutions respectively containing 10 ppm of N-isobutyl-2,6,8-decatrienamide obtained in Example 2 and Comparative Example 1.

Structure (SMILES) | remaining percentage of N-isobutyl-2,6,8-decatrienamide [1] | Sensory evaluation (numbing and astringent actions) [2]
CC=CC=CCC/C=C/C(=O)NCC(C)C (racemic) [Example 2, N-isobutyl-2,6,8-decatrienamide] | 98% | excellent numbing and astringent actions; also recorded: clear and strong
CC=CC=CCCC=CC(=O)NCC(C)C [Comparative Example 1, N-isobutyl-2,6,8-decatrienamide, reference compound] | 89% | –
